Here are results for two molecules from patent US20170196834A1, “PREPARATION AND APPLICATION OF FLAVONOL AS BRAIN-TARGETING SYNERGIST” (GUANGDONG PHARMACEUTICAL UNIVERSITY, priority 2014, published 2017).

Holding throughout (assay type): in vivo
For data set [1], the system named is MCAO forebrain ischemia. Kind of data set: MCAO forebrain ischemia rats, improvement rate of cerebral infarction area (Example 2). The following applies: gavage, 7 days after administration. How it is done: In addition, […] of MCAO forebrain ischemia were prepared, and they were administered with solvent saline, 100 mg/kg LXN11 and ginsenoside Rg1 by gavage at 20 ml/kg, 10 rats per group; Animals were sacrificed 7 days after administration, to observe the improvement rate of cerebral infarction area.

Data set [2] deals with MCAO forebrain ischemia. Put plainly: MCAO forebrain ischemia rats, improvement rate of cerebral infarction area (Example 4). The settings on record: gavage, 7 days after administration. On the procedure: In addition, 30 rats of MCAO forebrain ischemia were prepared, and they were administered solvent saline, 100 mg/kg LXN3, and resveratrol by gavage at 20 ml/kg, 10 rats per group; […]

Data set [3] is described as follows: Resveratrol in blood and brain tissues 0.5 h after intragastric administration, UPLC-MS (Example 4). The following applies: rat, oral, SD rats, 100 mg/kg resveratrol, 0.5 h after administration. On the procedure: Treatment Group: LXN3 was made into suspension. 5 SD rats were administered the suspension at the dose of 100 mg/kg resveratrol and the volume of 20 ml/kg by intragastric administration;
Control group: Resveratrol was made into suspension. 5 SD rats were administered the suspension at the dose of 100 mg/kg resveratrol and the volume of 20 ml/kg by intragastric administration;
The rats were derw blood 0.5 h after administration and then sacrificed under anaesthesia. Brain tissues were taken to prepare brain homogenates. The content of resveratrol in the blood and brain tissues were detected by UPLC-MS.

Like-named read-outs stand apart in the source and are kept apart here.

For `CC(C)=CCC[C@](C)(O[C@@H]1O[C@H](CO)[C@@H](O)[C@H](O)[C@H]1O)[C@H]1CC[C@]2(C)[C@@H]1[C@H](O)C[C@@H]1[C@@]3(C)CC[C@H](O)C(C)(C)[C@@H]3[C@@H](O[C@@H]3O[C@H](CO)[C@@H](O)[C@H](O)[C@H]3O)C[C@]12C` [Rg1, ginsenoside Rg1], the “Improvement rate of cerebral infarction area” value in data set [1] was determined as 26.1 ± 7.1%.
`Oc1ccc(C=Cc2cc(O)cc(O)c2)cc1` [Resveratrol]: in data set [2], the “Improvement rate of cerebral infarction area” value turned out to be 20.1 ± 8.6%. In addition, the concentration at 0.5 h was determined as 3.12 ± 1.29 ng/g in data set [3] (brain, read-out: Resveratrol content in brain tissues) and 5580 ± 1280 ng/mL in data set [3] (plasma, read-out: Plasma concentration of resveratrol).
